The results in this text go back to ChEMBL document CHEMBL4411268, “Phytosterol and γ-Oryzanol Conjugates: Synthesis and Evaluation of their Antioxidant, Antiproliferative, and Anticholesterol Activities” (2018).

Assay [1] concerns Daoy. The assay can be described thus: Antiproliferative activity against human DaOY cells assessed as growth inhibition after 72 hrs by MTT assay. It is filed as functional.
A short description of assay [2]: Metal chelating activity assessed as compound-Fe2+ complex formation by measuring chelated ferrous ion at 0.18 umol/ml preincubated with Mohr's salt followed by ferozine addition and measured after 10 mins.
The nature of assay [3]: Antioxidant activity against linoleic acid assessed as inhibition of beta-carotene bleaching at 0.18 umol/ml measured at 15 mins interval for 1 hr. It is filed as functional.
Assay [4] in a line: Antioxidant activity assessed as DPPH radical scavenging activity at 0.18 umol/ml incubated for 30 mins under dark condition relative to control. It is filed as functional.
Assay [5] relates to MDA-MB-231. The assay can be described thus: Antiproliferative activity against human MDA-MB-231 cells assessed as growth inhibition after 72 hrs by MTT assay. It is filed as functional. The conditions noted are these: MDA-MB-231, 72 h. Background: Tetrazolium assays rely on reduction of a dye to a coloured formazan, in cell work by metabolically active cells.
In assay [6] the test system is HeLa. The assay can be described thus: Antiproliferative activity against human HeLa cells assessed as growth inhibition after 72 hrs by MTT assay. It is filed as functional.

The GI50 is the concentration that inhibits growth by half. As usually defined, the inhibition is the relative decrease from the control value, in per cent.

Molecules are shown by their SMILES.

Turning to `C=C(CC[C@@H](C)[C@H]1CC[C@@]2(C)[C@@H]3CC[C@H]4C(C)(C)[C@@H](OC(=O)[C@H](CSSC[C@H](NC(=O)OC(C)(C)C)C(=O)O[C@H]5CC[C@]67C[C@@]68CC[C@]6(C)[C@@H]([C@H](C)CCC(=C)C(C)C)CC[C@@]6(C)[C@@H]8CC[C@H]7C5(C)C)NC(=O)OC(C)(C)C)CC[C@@]45C[C@]35CC[C@]12C)C(C)C`, the GI50 in assay [1], in assay [5] and in assay [6] was greater than 10000 nM each time. Further, the Activity in assay [2] was 0%. Further, the inhibition stood at 5% in assay [3] and 0% in assay [4].
As for `O=c1c(O)c(-c2ccc(O)c(O)c2)oc2cc(O)cc(O)c12`, the Activity in assay [2] is 22%.
In the case of `COc1cccc2c1C(=O)c1c(O)c3c(c(O)c1C2=O)C[C@@](O)(C(=O)CO)C[C@@H]3O[C@H]1C[C@H](N)[C@H](O)[C@H](C)O1` [DOXORUBICIN], the GI50 was determined as 16 nM in assay [1], 46 nM in assay [5] and 93 nM in assay [6].
